Results as given in ChEMBL document CHEMBL5120746, “Novel 5-fluorouracil sensitizers for colorectal cancer therapy: Design and synthesis of S1P receptor 2 (S1PR2) antagonists” (Eur J Med Chem, 2022).
Calls of active or inactive are those of the source. The calls are words filed in the database; no cut-off is given here.

Key:
[1] = test system: HCT-116; test: Reversal of 5-FU resistance against 5-FU resistant DPD expressed human HCT-116 cells assessed as reduction in cell viability incubated for 48 hrs in presence of 5-FU by MTT assay; format: functional, cell-based; conditions: HCT-116, 48 h
[2] = test system: NCM460; test: Cytotoxicity against human NCM460 cells assessed as reduction in cell viability at 5 to 80 uM; format: toxicity, cell-based; conditions: ncm460, 80 µM, dose 5-80 µM
[3] = test system: NCM460; test: Cytotoxicity against human NCM460 cells assessed as reduction in cell viability at 5 to 80 uM in presence of 5-fluorouracil; format: toxicity, cell-based; conditions: ncm460, 80 µM, dose 5-80 µM
[4] = test system: HCT-116; test: Downregulation of DPD expression in DPD expressed human HCT-116 cells measured after 12 hrs by Western blot analysis; format: functional, cell-based; conditions: dose 5-40 µM, DDE = dose-dependent effect
[5] = target: ATP-dependent translocase ABCB1 (Homo sapiens, UniProt P08183); test: Reversal of Pgp-mediated paclitaxel resistance in human LCC6MDR cells assessed as P-gp modulating activity by measuring relative fold at 1 uM; format: cell-based
[6] = Downregulation of S1PR2 mRNA expression level in human SW620/5-FU cells at 20 uM measured after 24 hrs by qRT-PCR analysis; format: functional
[7] = target: Sphingosine 1-phosphate receptor 2 (Homo sapiens, UniProt O95136); test: Antagonist activity at S1PR2 in human SW620/5-FU cells assessed as reduction of DPD-catalyzed 5-FU degradation by measuring intracellular 5-FU level at 20 uM measured after 24 hrs by HPLC-UV analysis; format: functional, cell-based; conditions: filed as antagonist
[8] = Initial drug concentration in Sprague-Dawley rat blood at 1 mg/kg, iv measured up to 24 hrs by HPLC-MS/MS analysis; format: ADME, organism-based
[9] = AUC (0 to t) in Sprague-Dawley rat blood at 1 mg/kg, iv measured up to 24 hrs by HPLC-MS/MS analysis; format: ADME, organism-based; set-up: dose 1 mg/kg, time < 24 hrs, route iv
[10] = Apparent volume of distribution in Sprague-Dawley rat blood at 1 mg/kg, iv measured up to 24 hrs by HPLC-MS/MS analysis; format: ADME, organism-based; conditions: read-out: Vd(app)
[11] = Clearance in Sprague-Dawley rat blood at 1 mg/kg, iv measured up to 24 hrs by HPLC-MS/MS analysis; format: ADME, organism-based
[12] = MRT (0 to infinity) in Sprague-Dawley rat blood at 1 mg/kg, iv measured up to 24 hrs by HPLC-MS/MS analysis; format: ADME, organism-based
[13] = Half life in Sprague-Dawley rat plasma at 1 mg/kg, iv measured up to 24 hrs by HPLC-MS/MS analysis; format: ADME, organism-based; conditions: in vivo
[14] = AUC (0 to t) in Sprague-Dawley rat plasma at 1 mg/kg, iv measured up to 24 hrs by HPLC-MS/MS analysis; format: ADME, organism-based; set-up: dose 1 mg/kg, time < 24 hrs, route iv
[15] = AUC (0 to infinity) in Sprague-Dawley rat plasma at 1 mg/kg, iv measured up to 24 hrs by HPLC-MS/MS analysis; format: ADME, organism-based; set-up: dose 1 mg/kg, time < 24 hrs, route iv
[16] = Clearance in Sprague-Dawley rat plasma at 1 mg/kg, iv measured up to 24 hrs by HPLC-MS/MS analysis; format: ADME, organism-based; conditions: in vivo
[17] = MRT (0 to infinity) in Sprague-Dawley rat plasma at 1 mg/kg, iv measured up to 24 hrs by HPLC-MS/MS analysis; format: ADME, organism-based
[18] = Toxicity in SPF nude mouse xenografted with DPD expressed human HCT-116 cells assessed as change in body weight at 15 mg/kg, iv QD for 20 days and measured every 4 days; format: organism-based; conditions: in vivo, 480 h, time 20 day
[19] = Toxicity in SPF nude mouse xenografted with human SW620/5-FU cells assessed as change in body weight at 7.5 mg/kg, iv QD for 21 days and measured every 4 days in presence of 5-fluorouracil; format: organism-based; conditions: in vivo, 504 h, time 21 day
[20] = test system: HCT-116; test: Antitumor activity against DPD expressed human HCT-116 cells xenografted in SPF nude mouse assessed as tumor growth inhibition at 15 mg/kg, iv QD for 20 days and measured every 4 days in presence of 5-fluorouracil; format: functional; conditions: HCT-116, 480 h, time 20 day, read-out: TGI
[21] = test system: SW620/5-FU; test: Antitumor activity against human SW620/5-FU cells xenografted in SPF nude mouse assessed as tumor growth inhibition at 15 mg/kg, iv QD for 21 days and measured every 4 days; format: functional; conditions: 504 h, time 21 day, read-out: TGI
[22] = test system: SW620/5-FU; test: Antitumor activity against human SW620/5-FU cells xenografted in SPF nude mouse assessed as tumor growth inhibition at 7.5 mg/kg, iv QD for 21 days and measured every 4 days; format: functional; conditions: 504 h, time 21 day, read-out: TGI
[23] = test system: SW620/5-FU; test: Antitumor activity against human SW620/5-FU cells xenografted in SPF nude mouse assessed as tumor growth inhibition at 7.5 mg/kg, iv QD for 21 days and measured every 4 days in presence of 5-fluorouracil; format: functional; conditions: 504 h, time 21 day, read-out: TGI
[24] = test system: SW620/5-FU; test: Antitumor activity against human SW620/5-FU cells xenografted in SPF nude mouse assessed as tumor growth inhibition at 30 mg/kg, iv QD for 21 days and measured every 4 days in presence of 5-fluorouracil; format: functional; conditions: 504 h, time 21 day, read-out: TGI
[25] = test system: SW620/5-FU; test: Antitumor activity against human SW620/5-FU cells xenografted in SPF nude mouse assessed as reduction in tumor weight at 15 mg/kg, iv QD for 21 days; format: functional; set-up: scale not given: the % may be the effect or the level left; conditions: time 21 day
[26] = test system: SW620/5-FU; test: Antitumor activity against human SW620/5-FU cells xenografted in SPF nude mouse assessed as reduction in tumor weight at 7.5 mg/kg, iv QD for 21 days in presence of 5-fluorouracil; format: functional; set-up: scale not given: the % may be the effect or the level left; conditions: time 21 day
[27] = test system: SW620/5-FU; test: Antitumor activity against human SW620/5-FU cells xenografted in SPF nude mouse assessed as reduction in tumor weight at 15 mg/kg, iv QD for 21 days in presence of 5-fluorouracil; format: functional; set-up: scale not given: the % may be the effect or the level left; conditions: time 21 day
[28] = test system: SW620/5-FU; test: Antitumor activity against human SW620/5-FU cells xenografted in SPF nude mouse assessed as reduction in tumor weight at 30 mg/kg, iv QD for 21 days in presence of 5-fluorouracil; format: functional; set-up: scale not given: the % may be the effect or the level left; conditions: time 21 day
[29] = test system: Mus musculus; test: Downregulation of DPD expression in tumor of SPF nude mouse xenografted with human SW620/5-FU cells administered intravenously QD for 21 days by Western blot analysis; format: functional; conditions: dose 7.5-15 mg/kg, route iv, time 21.0 day, DDE = dose-dependent effect
[30] = Downregulation of DPD expression in tumor of SPF nude mouse xenografted with human SW620/5-FU cells at 30 mg/kg, iv QD for 21 days in presence of 5-fluorouracil by Western blot analysis; format: functional; conditions: time 21 day
[31] = test system: Mus musculus; test: Downregulation of DPD expression in liver of SPF nude mouse xenografted with human SW620/5-FU cells at 15 to 30 mg/kg, iv QD for 21 days in presence of 5-fluorouracil by Western blot analysis; format: functional, organism-based; conditions: dose 15-30 mg/kg, time 21.0 day
[32] = test system: Mus musculus; test: Downregulation of DPD expression in tumor of SPF nude mouse xenografted with human SW620/5-FU cells at 7.5 to 15 mg/kg, iv QD for 21 days by immunohistochemical analysis; format: functional, organism-based; conditions: dose 7.5-15 mg/kg, time 21.0 day
[33] = test system: Mus musculus; test: Downregulation of S1PR2 expression in tumor SPF nude mouse xenografted with human SW620/5-FU cells at 7.5 to 15 mg/kg, iv QD for 21 days by immunohistochemical analysis; format: functional, organism-based; conditions: dose 7.5-15 mg/kg, time 21.0 day

Sequence of ATP-dependent translocase ABCB1 (P08183 whole entry): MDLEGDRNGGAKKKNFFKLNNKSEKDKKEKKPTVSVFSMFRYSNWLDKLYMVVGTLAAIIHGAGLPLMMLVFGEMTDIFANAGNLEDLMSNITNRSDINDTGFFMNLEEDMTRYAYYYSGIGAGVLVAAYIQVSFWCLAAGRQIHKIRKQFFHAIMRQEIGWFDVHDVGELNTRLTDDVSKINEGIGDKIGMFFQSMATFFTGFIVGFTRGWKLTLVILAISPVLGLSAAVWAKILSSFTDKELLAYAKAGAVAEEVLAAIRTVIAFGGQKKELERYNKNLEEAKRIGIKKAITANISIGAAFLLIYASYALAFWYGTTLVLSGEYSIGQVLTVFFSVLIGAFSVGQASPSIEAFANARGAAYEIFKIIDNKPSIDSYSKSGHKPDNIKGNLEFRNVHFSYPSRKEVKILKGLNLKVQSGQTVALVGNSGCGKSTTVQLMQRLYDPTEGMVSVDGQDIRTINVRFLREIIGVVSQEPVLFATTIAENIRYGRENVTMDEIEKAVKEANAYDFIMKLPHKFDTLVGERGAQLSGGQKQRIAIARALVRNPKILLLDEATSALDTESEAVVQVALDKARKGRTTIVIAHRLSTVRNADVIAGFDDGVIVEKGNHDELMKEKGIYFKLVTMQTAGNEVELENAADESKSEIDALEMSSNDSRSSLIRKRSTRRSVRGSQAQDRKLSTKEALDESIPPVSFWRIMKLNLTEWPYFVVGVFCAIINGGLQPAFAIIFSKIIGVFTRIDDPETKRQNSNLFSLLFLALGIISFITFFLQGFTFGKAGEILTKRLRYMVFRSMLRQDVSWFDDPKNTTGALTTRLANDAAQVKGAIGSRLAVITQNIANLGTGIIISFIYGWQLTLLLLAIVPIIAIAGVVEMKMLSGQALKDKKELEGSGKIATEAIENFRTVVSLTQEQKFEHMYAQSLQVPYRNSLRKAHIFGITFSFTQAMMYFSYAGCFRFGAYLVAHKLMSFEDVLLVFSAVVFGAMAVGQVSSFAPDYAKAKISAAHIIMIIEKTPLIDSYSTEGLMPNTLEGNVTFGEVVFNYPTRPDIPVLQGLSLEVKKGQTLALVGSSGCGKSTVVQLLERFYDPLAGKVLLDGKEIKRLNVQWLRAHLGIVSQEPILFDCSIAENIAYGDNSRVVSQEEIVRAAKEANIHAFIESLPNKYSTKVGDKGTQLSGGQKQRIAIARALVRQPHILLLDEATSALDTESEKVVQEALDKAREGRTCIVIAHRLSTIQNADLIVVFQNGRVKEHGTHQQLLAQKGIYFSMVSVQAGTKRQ
Sequence of Sphingosine 1-phosphate receptor 2 (O95136 whole entry): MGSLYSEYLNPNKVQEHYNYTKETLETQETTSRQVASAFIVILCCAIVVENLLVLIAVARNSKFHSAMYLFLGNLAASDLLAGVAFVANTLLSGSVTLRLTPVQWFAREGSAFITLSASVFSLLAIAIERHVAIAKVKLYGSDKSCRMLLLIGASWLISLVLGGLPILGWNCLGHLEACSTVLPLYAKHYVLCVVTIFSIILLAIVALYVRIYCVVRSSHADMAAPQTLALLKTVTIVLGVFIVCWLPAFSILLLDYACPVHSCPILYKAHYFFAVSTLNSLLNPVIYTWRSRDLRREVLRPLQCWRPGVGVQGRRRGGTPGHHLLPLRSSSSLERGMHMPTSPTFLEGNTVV

Cn1ncc2c(-c3ccc(F)cc3)cc(NNC(=O)Nc3cc(Cl)nc(Cl)c3)nc21
EC50 [1]: 8.21 µM | Activity [2]: Toxic | Activity [3]: Toxic | Activity [4]: Dde | fold change (FC) [5]: 1.4 | Activity [6]: 25% | Activity [7]: 7.8 µM | C0 at 24 h [8]: 4970 ng/mL | AUC(0-t) at 24 h [9]: 10300 ng·h/mL | Vd [10]: 1.8 L/kg | clearance [11]: 1.5 mL/min/kg | MRT inf [12]: 8.5 h | t1/2 [13]: 4.4 h | AUC(0-t) at 24 h [14]: 10100 ng·h/mL | AUC(0-inf) [15]: 11700 ng·h/mL | CL [16]: 1.5 mL/min/kg | MRT inf [17]: 8.3 h | Activity [18]: Non-Toxic | Activity [19]: Non-Toxic | inhibition in vivo at 15 mg/kg [20]: 70.1% | inhibition in vivo at 15 mg/kg [21]: 28.5% | inhibition in vivo at 7.5 mg/kg [22]: 14.7% | inhibition in vivo at 7.5 mg/kg [23]: 43.2% | inhibition in vivo at 30 mg/kg [24]: 62.1% | Activity [25]: 12.34% | Activity [26]: 47.79% | Activity [27]: 51.72% | Activity [28]: 60.81% | Activity [29]: Dde | Activity [30]: 0.05 | Activity [31]: Active | Activity [32]: Active | Activity [33]: Active
